Experimental findings from patent publication US8088820B2, “Substituted tetracycline compounds for the treatment of malaria” (Paratek Pharmaceuticals, Inc., priority 2001, dated 2012) are described below.

This data set is described as follows: in vitro. The following applies: African green monkey (COS-1); Chinese hamster (CHO).

SMILES strings stand for the structures. Where only a bound is given, the exact number is not on record here.

`C[C@H]1c2cccc(O)c2C(=O)C2=C(O)[C@]3(O)C(=O)C(C(N)=O)=C(O)[C@@H](N(C)C)[C@@H]3[C@@H](O)[C@@H]21` [doxycycline] came in with a half-inhibitory concentration (IC50) at 24 h greater than 25 µg/mL.

`CN(C)c1ccc(O)c2c1C[C@H]1C[C@H]3[C@H](N(C)C)C(O)=C(C(N)=O)C(=O)[C@@]3(O)C(O)=C1C2=O` [minocycline] displayed an IC50 at 24 h greater than 25 µg/mL.
